Results on 16 molecules are retold here after patent EP3917907B1, “MODULATORS OF POTASSIUM ION CHANNELS AND USES THEREOF” (Universitá Degli Studi Di Salerno, priority 2019, dated 2020).

One data set has as its target T1, Kv7.2 (Homo sapiens, UniProt O43526).
T1 construct: expressed in transfected cells; host or cells: CHO cells (ATCC CRL-9618), transient transfection, pcDNA3.1(+)
Nature of the data set: Whole-cell patch-clamp on CHO cells transiently expressing Kv7.2. The class given is cell-based. Conditions: CHO cells, mean±SEM, >1 activating, <1 inhibiting; for Idrug/Ictl at 0 mV: ratio of ramp-evoked Kv7.2 current amplitude in presence and absence of drug at 0 mV; for Idrug/Ictl at -40 mV: ratio of ramp-evoked Kv7.2 current amplitude in presence and absence of drug at -40 mV. As for the experimental part: According to the experimental protocol, these plasmids were expressed individually or in combination (in particular of Kv7.2 and Kv7.3), together with a plasmid-expressing enhanced green fluorescent protein (Clontech, Palo Alto, CA) used as a transfection marker. Total cDNA in the transfection mixture was kept at 4 µg. CHO cells were grown in 100-mm plastic Petri dishes in Dulbecco's modified Eagle's medium containing 10% fetal bovine serum, nonessential amino acids (0.1 mM), penicillin (50 U/ml), and streptomycin ([…]) in a humidified atmosphere at 37°C with 5% CO2. The cells were plated on glass coverslips coated with poly-L-lysine, and transfected one day after plating with the appropriate cDNA using Lipofectamine 2000 (Life Technologies), according to the manufacturer's protocol.
Currents from CHO cells were recorded at room temperature (20-22°C) 24 hours after trasfection using the whole-cell configuration of the patch-clamp technique, with glass micropipettes of 3-5 MΩ resistance. During the recording, constant perfusion of extracellular solution was maintained. The extracellular solution contained (in mM): 138 NaCl, 2 CaCl2, 5.4 KCl, 1 MgCl2, 10 glucose, and 10 HEPES, at pH 7.4, adjusted with NaOH. The pipette (intracellular) solution contained (in mM): 140 KCl, 2 MgCl2, 10 EGTA, 10 HEPES, 5 Mg^2+-ATP, at pH 7.3-7.4, adjusted with KOH. Currents were recorded using an Axopatch-200A amplifier, filtered at 5 kHz, and digitized using a DigiData 1440A (Molecular Devices). The pCLAMP software (version 10.2, Molecular Devices) was used for data acquisition and analysis. To evaluate the activity of exemplary compounds on Kv7.2 (see Table 1), as well as on Kv7.1, Kv7.2/7.3, Kv7.3 and Kv7.4 channels for selected compounds (see Table 2), the cells were clamped at -80 mV and currents were elicited by 3-s voltage ramps from -80 mV to +20 mV in the presence and absence of each compound. […] The effects of drugs were expressed as shift in the ramp-voltage (ΔV) calculated at 20% of the maximal current (Miceli et al, Proc Natl Acad Sci U S A. 2013, 110(11):4386-91). Curves were fitted using the following equation: y=max/(1+x/EC50)n, where x is the drug concentration, n is the Hill coefficient and max is the maximal value achieved, as previously described (Ambrosino et al, Br J Pharmacol. 2013, 168(6):1430-1444). Data analysis and fit were performed using Sigmaplot (version 12.3).
Ramp-evoked Kv7.2 currents were analyzed by measuring the currents at -40 mV (a membrane potential value close to the activation threshold) and at 0 mV (a membrane potential value at which Kv7.2 conductance is largely saturated). In particular, -40 mV represents the threshold potential for spike initiation and 0 mV represents instead the membrane potential value at which maximal conductance of the channel is achieved.
In Table 1, the effect of exemplary compounds of the invention is expressed as the ratio between current amplitude in the presence (Idrug) and absence (Ictl) of the drug at these two membrane voltages. […]

A short description of data set [1]: Solution stability (HPLC, extracellular solution, ambient temperature). The data set is classed as physicochemical. Conditions: percentage of degradation after 6 h at ambient temperature; 100 ppm in extracellular solution pH 7.4. The protocol: (§1) In order to study the solution stability and photostability of the potassium channel modulators object of the present invention, a stock solution of the proper analyte (1 mg/mL) in dimethylsulfoxide (DMSO) has been prepared. This solution has been then diluted to a concentration of 100 ppm using extracellular solution containing (in mM): 138 NaCl, 2 CaCl2, 5.4 KCl, 1 MgCl2, 10 glucose, and 10 HEPES, at pH 7.4, adjusted with NaOH. To measure solution stability, the diluted solutions have been maintained at ambient temperature for 6 h. To measure photostability, the diluted solutions have been irradiated for 6 h using a Oriel Sol3A Solar Simulator (Newport corporation, Irvine, CA, USA) with a 12x12 inches output beam. Aliquots of solution have been withdrawn after 6h and analyzed by HPLC using a Kinetex C18, 150 mm × 4.6 mm × 2.6 µm (Phenomenex, Bologna, Italy) as stationary phase and a mobile phase constituted by A: H2O/CH3CN (80:20) and B: CH3CN. Gradient elution has been performed from 20% to 90% of B in 7.50 minutes and from 90% to 20% of B in 1 minute. The pump flux has been set to 1.5 mL/min. Column has been thermostatted at 40°C during analysis. Results are espressed in Table 3 as percentage of degradation of the product calculated as ratio between the peak area of the analyte at time 0 (Pa0) and after 6h (Pa6) using the following formula: % degradation = (Pa0−Pa6)/Pa0 *100. [formula]

Data set [2] is described as follows: Photostability (HPLC, solar simulator irradiation). The class given is physicochemical. Conditions: percentage of degradation after 6 h irradiation with solar simulator; 100 ppm in extracellular solution pH 7.4. As for the experimental part:
as §1

Regarding `CCCCS(=O)(=O)Nc1ccc2c(c1)CCN2Cc1ccc(F)cc1` [N-(1-(4-fluorobenzyl)indolin-5-yl)butane-1-sulfonamide], at Kv7.2, the “Idrug/Ictl at 0 mV” value is on record as 1.55±0.12 and the “Idrug/Ictl at -40 mV” value is on record as 2.03±0.19. Further, the Solution stability result in data set [1] is “C (degradation > 40%)”. In data set [2], the Photostability entry is recorded as “C (degradation > 40%)”.
Regarding `O=S(=O)(Nc1ccc2c(c1)CCN2Cc1ccc(F)cc1F)C1CCCCC1` [N-(1-(2,4-difluorobenzyl)indolin-5-yl)cyclohexanesulfonamide], at Kv7.2, the “Idrug/Ictl at 0 mV” value came to 3.79±1.09 and the “Idrug/Ictl at -40 mV” value worked out at 5.82±1.38. Also, the Solution stability entry in data set [1] was “C (degradation > 40%)”. Also, the Photostability entry in data set [2] is given as “C (degradation > 40%)”.
As for `CC(C)(C)CNC(=N)Nc1ccc2c(c1)CCN2Cc1ccc(F)cc1` [1-(1-(4-fluorobenzyl)indolin-5-yl)-3-neopentylguanidine], on Kv7.2, the “Idrug/Ictl at 0 mV” value was 0.84±0.09 and the “Idrug/Ictl at -40 mV” value turned out to be 0.98±0.09. The Solution stability result in data set [1] was “A (degradation lower than 20%)”. Also, the Photostability result in data set [2] is “B (20%< degradation<40%)”.
Take `COc1ccc(Cn2ccc3cc(NS(=O)(=O)C4CCCCC4)ccc32)cc1` [N-(1-(4-methoxybenzyl)-1H-indol-5-yl)cyclohexanesulfonamide]: on Kv7.2, the “Idrug/Ictl at 0 mV” value came out at 1.63±0.06 and the “Idrug/Ictl at -40 mV” value was determined as 2.00±0.36. Also, the Solution stability result in data set [1] is listed as “A (degradation lower than 20%)”. The Photostability entry in data set [2] was “A (degradation lower than 20%)”.
Regarding `COc1ccc(CN2c3ccc(NS(=O)(=O)C4CCCCC4)cc3CC2C)cc1` (stereo not shown) [N-(1-(4-methoxybenzyl)-2-methylindolin-5-yl)cyclohexanesulfonamide], at Kv7.2, the “Idrug/Ictl at 0 mV” value amounted to 0.92±0.13 and the “Idrug/Ictl at -40 mV” value is given as 1.13±0.15. For the same molecule, the Solution stability result in data set [1] is listed as “B (20%< degradation<40%)”. Also, in data set [2], the Photostability entry is “C (degradation > 40%)”.
For the molecule `CC1(C)[C@@H]2CC[C@@]1(CS(=O)(=O)Nc1ccc3c(c1)CCN3Cc1ccc(F)cc1)C(=O)C2` [1-((1S,4R)-7,7-dimethyl-2-oxobicyclo[2.2.1]heptan-1-yl)-N-(1-(4-fluorobenzyl)indolin-5-yl)methanesulfonamide], on Kv7.2, the “Idrug/Ictl at 0 mV” value is recorded as 0.99±0.06 and the “Idrug/Ictl at -40 mV” value amounted to 1.12±0.05. Besides, the Solution stability result in data set [1] is recorded as “C (degradation > 40%)”. The Photostability result in data set [2] is “C (degradation > 40%)”.
Regarding `COCCOCC(=O)Nc1ccc2c(ccn2Cc2ccc(C(F)(F)F)cc2)c1` [2-(2-methoxyethoxy)-N-(1-(4-(trifluoromethyl)benzyl)-1H-indol-5-yl)acetamide], on Kv7.2, the “Idrug/Ictl at 0 mV” value is given as 0.86±0.01 and the “Idrug/Ictl at -40 mV” value came to 1.50±0.16. The Solution stability entry in data set [1] is recorded as “A (degradation lower than 20%)”. In addition, the Photostability result in data set [2] was “A (degradation lower than 20%)”.
As for `O=S(=O)(Nc1ccc2c(ccn2Cc2ccc(F)cc2)c1)C1CCCCC1` [N-(1-(4-fluorobenzyl)-1H-indol-5-yl)cyclohexanesulfonamide], on Kv7.2, the “Idrug/Ictl at 0 mV” value is recorded as 2.76±0.19 and the “Idrug/Ictl at -40 mV” value amounted to 4.71±1.31. Besides, the Solution stability entry in data set [1] is listed as “A (degradation lower than 20%)”. In addition, the Photostability result in data set [2] is listed as “A (degradation lower than 20%)”.
Turning to `CCCCCCC(=O)Nc1ccc(NCc2ccc(C(F)(F)F)cc2)c(F)c1N` [N-(2-amino-3-fluoro-4-((4-(trifluoromethyl)benzyl)amino)phenyl)heptanamide], at Kv7.2, the “Idrug/Ictl at 0 mV” value is listed as 1.94±0.12 and the “Idrug/Ictl at -40 mV” value turned out to be 5.76±1.28. For the same molecule, the Solution stability result in data set [1] is listed as “A (degradation lower than 20%)”. For the same molecule, the Photostability entry in data set [2] is listed as “A (degradation lower than 20%)”.
As for `O=S(=O)(Nc1ccc2c(ccn2Cc2ccc(C(F)(F)F)cc2)c1)C1CCCCC1` [N-(1-(4-(trifluoromethyl)benzyl)-1H-indol-5-yl)cyclohexanesulfonamide], at Kv7.2, the “Idrug/Ictl at 0 mV” value worked out at 1.93±0.19 and the “Idrug/Ictl at -40 mV” value worked out at 2.27±0.49. Also, the Solution stability result in data set [1] was “A (degradation lower than 20%)”. For the same molecule, the Photostability entry in data set [2] was “A (degradation lower than 20%)”.
Consider `O=S(=O)(Nc1ccc2c(c1)CCN2CCc1ccc(F)cc1)C1CCCCC1` [N-(1-(4-fluorophenethyl)indolin-5-yl)cyclohexanesulfonamide], for which, on Kv7.2, the “Idrug/Ictl at 0 mV” value was determined as 1.37±0.17 and the “Idrug/Ictl at -40 mV” value stood at 3.24±1.52. In addition, the Solution stability entry in data set [1] is reported as “C (degradation > 40%)”. Moreover, in data set [2], the Photostability result is reported as “C (degradation > 40%)”.
Take `CC(C)CS(=O)(=O)Nc1ccc2c(c1)CCN2Cc1ccc(F)cc1` [N-(1-(4-fluorobenzyl)indolin-5-yl)-2-methylpropane-1-sulfonamide]: on Kv7.2, the “Idrug/Ictl at 0 mV” value turned out to be 1.93±0.32 and the “Idrug/Ictl at -40 mV” value turned out to be 2.55±0.79. Further, in data set [1], the Solution stability result is reported as “C (degradation > 40%)”. Moreover, the Photostability result in data set [2] is “C (degradation > 40%)”.
As to `CCCCCCS(=O)(=O)Nc1ccc2c(c1)CCN2Cc1ccc(F)cc1` [N-(1-(4-fluorobenzyl)indolin-5-yl)hexane-1-sulfonamide], on Kv7.2, the “Idrug/Ictl at 0 mV” value turned out to be 2.18±0.09 and the “Idrug/Ictl at -40 mV” value is 2.48±0.20. The Solution stability result in data set [1] was “B (20%< degradation<40%)”. Further, the Photostability entry in data set [2] is given as “C (degradation > 40%)”.
Regarding `O=C(Nc1ccc2c(c1)CCN2Cc1ccc(F)cc1)NC1CCCCC1` [1-cyclohexyl-3-(1-(4-fluorobenzyl)indolin-5-yl)urea], on Kv7.2, the “Idrug/Ictl at 0 mV” value was 0.85±0.12 and the “Idrug/Ictl at -40 mV” value amounted to 0.95±0.16. Also, the Solution stability result in data set [1] is “A (degradation lower than 20%)”. The Photostability entry in data set [2] is “B (20%< degradation<40%)”.
Taken in the same sequence, the figures for `CC(C)(C)CC(=O)Nc1ccc2c(ccn2Cc2ccc(C(F)(F)F)cc2)c1` [3,3-dimethyl-N-(1-(4-(trifluoromethyl)benzyl)-1H-indol-5-yl)butanamide] were 3.54±0.88, 8.23±1.36, “A (degradation lower than 20%)” and “A (degradation lower than 20%)”.
On the same counts, the results for `COCCOCCC(=O)Nc1ccc2c(ccn2Cc2ccc(C(F)(F)F)cc2)c1` [3-(2-methoxyethoxy)-N-(1-(4-(trifluoromethyl)benzyl)-1H-indol-5-yl)propanamide] are 1.34±0.10, 2.64±0.77, “A (degradation lower than 20%)” and “A (degradation lower than 20%)”.
